Data taken from patent publication US20190336615A1, “TUMOR TARGETING CONJUGATES AND METHODS OF USE THEREOF” (SILVERBACK THERAPEUTICS, INC., priority 2017, published 2019).

Assays:
PBMCs = assay: TNFα production by PBMCs with antigen-expressing tumor cells (AlphaLISA); assay type: cell-based, human; conditions: PBMCs with SKBR3 tumor cells (HER2), 24 hours, FIG. 20
Protocol: Anti-HER2-antiCD40 G1 antibody was prepared as described in Example 18. Pertuzumab was used as the HER2 G1WT antibody. Conjugates were prepared as generally described in Example 15. PBMCs were isolated from human blood as described above. Briefly, PBMCs were isolated by Ficoll gradient centrifugation, resuspended in RPMI, and plated in 96-well flat bottom microtiter plates (125,000/well). Antigen-expressing tumor cells were then added (25,000/well) along with titrating concentrations of conjugates or unconjugated parental antibodies as controls. After overnight culture, supernatants were harvested, and TNFα levels were determined by AlphaLISA.
Referring to FIG. 20, SKBR3 tumor cells were added to PBMCs, prepared as described above. SKBR3 tumor cells express the tumor antigen HER2. Anti-HER2 TLR8 benzazepine agonist conjugates, either monospecific or bispecific with CD40, and conjugated to various TLR8 benzazepine agonists were added. The immune-stimulatory compound-linkers in the conjugates used in the study are identified in TABLES 30 and 31.

monocytes = assay: TNFα production by monocytes with or without tumor cells (AlphaLISA); assay type: cell-based, human; conditions: monocytes with CEA-expressing CHO cells, FIG. 22
Protocol: Monocytes were prepared as follows: PBMCs were isolated from normal human blood using Ficoll purification, and monocytes were enriched from the PBMCs using Stem Cell Technologies Human Monocyte without CD16 Depletion Negative Selection Kits according to the manufacturer's instructions. Monocytes were then slowly frozen and stored in liquid nitrogen. Prior to assay monocytes were thawed and rested overnight at 37° C. in 5% CO2 in assay media (RPMI 1640 media supplemented with 10% FBS, […], 1 mM HEPES, 1× non-essential amino acids, 0.1 mM sodium pyruvate). The following day, monocytes were plated at 4×10^4 cell/well with or without tumor cells at 4×10^4 cell/well in 96-well flat bottom plates in assay media described above. After overnight culture, supernatants were harvested, and TNFα levels were determined by AlphaLISA.

## Pertuzumab [HER2 G1WT, reference compound]
PBMCs
  TNFα production: did not stimulate TNFα production
monocytes
  TNFα production: only the CEA conjugate exhibited activity
